According to patent EP0505937A1, “Flavone derivatives, a process for the preparation thereof and pharmaceutical compositions containing them” (GEYMONAT S.p.A., priority 1991, dated 1992):
pIC50: −log10 of the molar value. Read-outs that look alike come from different tables or passages of the source.

Target: T1, porcine pancreatic elastase (Sus scrofa, UniProt P00772)
T1 construct: purchased Sigma n.E. 0.127
Assay: antielastase activity (method of Bieth and coll., cleavage of N-succinyl-L-alanyl-L-alanyl-L-alanyl-para-nitroanilide, UV at 410 nm)
Type: biochemical
Conditions: for IC50: enzyme 1 microgram/ml in 0,2 M phosphate buffer, pH 8, incubated at 30°C for 10', read-out: I₅₀ (converted)
Protocol: The antielastase activity of compounds (I) was evidenced by the method described by Bieth and coll. (Biochim. med. [formula] 350 (1974)), with slight changes when the test compounds were poorly water-soluble.
The determination of the antielastase activity was carried out using porcine pancreatic elastase (90 U/mg/weight; 120 U/mg protein-biuret-n.E. 0.127 Sigma) as the enzyme in solution. The enzyme-containing solution was prepared dissolving the enzyme in 0,2 M phosphate buffer, pH 8, to a final concentration of 1 microgram/ml.
The substrate solution was N-succinyl-L-alanyl-L-alanyl-L-alanyl-para-nitroanilide (available from Sigma cat. N.S. 4760). The substrate was dissolved in dimethylsulfoxide to a concentration of […] (125 mM).
The procedure to determine the antielastase activity consisted of the following steps: • 2,9 ml of the enzyme solution with antielastase activity were placed into a quartz cuvette with 10 mm optical path, then 0,5 ml of bidistilled water were added. This standard solution was subsequently added with the different solutions of the various inhibitors.
The test solutions (standard and standard + inhibitor) were incubated at 30°C for 10', then 20 µl of substrate were added and the solution in the cuvette was stirred. The UV spectrum was recorded at 410 nm for 10' with a Beckman mod. 24 spectrophotometer against a blank consisting of the same enzyme-free standard solution.

T1 sequence (P00772 27-266): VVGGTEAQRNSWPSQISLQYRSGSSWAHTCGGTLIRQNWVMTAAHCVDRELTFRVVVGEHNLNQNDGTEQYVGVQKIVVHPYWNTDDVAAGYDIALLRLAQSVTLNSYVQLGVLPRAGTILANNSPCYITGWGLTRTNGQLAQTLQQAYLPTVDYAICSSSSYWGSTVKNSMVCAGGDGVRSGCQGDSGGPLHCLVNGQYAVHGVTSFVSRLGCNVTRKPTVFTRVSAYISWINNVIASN

Compound | IC50 [µM] | also measured
COc1ccc([C@@H]2CC(=O)c3c(O)cc(O[C@@H]4O[C@H](CO[C@@H]5O[C@@H](C)[C@H](O)[C@@H](O)[C@H]5O)[C@@H](O)[C@H](O)[C@H]4O)cc3O2)cc1O [Esperidin] | – | pIC50: 3.03
COc1ccc(-c2cc(=O)c3c(O)cc(O[C@@H]4O[C@H](CO[C@@H]5O[C@@H](C)[C@H](O)[C@@H](O)[C@H]5O)[C@@H](O)[C@H](O)[C@H]4O)cc3o2)cc1O [Diosmin] | – | antielastase activity (at the minimum concentration obtained (about 10 mg/ml)): absence of any antielastase activity
COc1ccc(-c2cc(=O)c3c(O)cc(O[C@@H]4O[C@H](CO[C@@H]5O[C@@H](C)[C@H](O)[C@@H](O)[C@H]5O)[C@@H](O)[C@H](O)[C@H]4O)cc3o2)cc1OCCO [Hydrosmin, 3'-hydroxyethyldiosmin] | 955 | –
C[C@@H]1O[C@@H](OC[C@H]2O[C@@H](Oc3c(-c4ccc(O)c(O)c4)oc4cc(O)cc(O)c4c3=O)[C@H](O)[C@@H](O)[C@@H]2O)[C@H](O)[C@H](O)[C@H]1O [Rutin] | 983 | –
